Experimental data published in patent publication US9724334B1, “Method for treating a neurodegenerative disease or depression comprising administering derivatives of 2-amino-2-(1-dodecyl-1H-1,2,3-triazol-4-yl)propane-1,3-diol” (Kyungpook National University Industry-Academic Cooperation …, priority 2016, dated 2017).

Key:
[1] = biological target: T1, ASM (acid sphingomyelinase) (Mus musculus, UniProt Q04519); test: ASM concentration levels in plasma and brain tissue of APP/PS1 mice after feeding via drinking water; format: in vivo; conditions: 100 mg/kg/day via drinking water; for ASM concentration level in brain tissues / ASM concentration level in plasma: 9.5 month-old APP/PS1 mice, versus unfed APP/PS1 mice
T1 construct: from tissue; host or cells: plasma and brain tissue of APP/PS1 transgenic mice (C57BL/6 background)
T1 sequence (Q04519 45-627): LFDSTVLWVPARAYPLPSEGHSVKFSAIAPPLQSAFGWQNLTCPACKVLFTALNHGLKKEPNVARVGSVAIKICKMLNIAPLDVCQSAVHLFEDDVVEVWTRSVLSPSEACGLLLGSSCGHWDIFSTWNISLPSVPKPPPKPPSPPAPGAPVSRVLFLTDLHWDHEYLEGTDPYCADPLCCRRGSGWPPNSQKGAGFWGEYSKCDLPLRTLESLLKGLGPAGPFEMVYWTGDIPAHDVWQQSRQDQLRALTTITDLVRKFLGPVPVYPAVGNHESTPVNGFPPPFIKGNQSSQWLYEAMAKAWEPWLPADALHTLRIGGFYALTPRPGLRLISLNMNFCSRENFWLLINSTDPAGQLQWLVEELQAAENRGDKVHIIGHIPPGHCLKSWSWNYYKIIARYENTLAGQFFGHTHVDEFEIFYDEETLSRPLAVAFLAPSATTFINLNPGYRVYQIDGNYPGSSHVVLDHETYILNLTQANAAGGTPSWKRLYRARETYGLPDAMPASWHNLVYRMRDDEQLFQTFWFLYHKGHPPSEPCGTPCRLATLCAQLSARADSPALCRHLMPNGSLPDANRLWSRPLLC
Excerpt: IACUC (Kyungpook National University Institutional Animal Care and Use Committee) approved the present mouse experiment. A transgenic mouse line overexpressing APPswe (hAPP695swe) or PS1 (presenilin-1M146V) was used based on C57BL/6 mouse (Charles River, UK) (hereinafter, APP mouse: APPswe-overexpressing mouse, PS1 mouse: presenilin-1M146V overexpressing mouse; GlaxoSmithKline). To confirm the therapeutic effect of the novel ASM inhibitory compounds, the novel ASM inhibitory compound or AMI were fed via drinking water at a dose of 100 mg/kg/day to mice at 5.5 months of age. Three months after the feeding, behavioral analysis on the mice was performed, followed by sampling of mouse brain tissues (FIG. 3). The concentration levels of ASM were measured as follows. Specifically, a microliter mouse plasma, brain tissue and 3 μl of fibroblast samples were mixed with ASM activity buffer and stored at 37° C. 114 μl of ethanol was added to terminate the hydrolysis reaction, followed by centrifugation. 30 μl of the supernatant was transferred to a glass vial, of which 5 μl was applied to the UPLC system. The ASM concentration levels were quantified by comparison with Bodipy (aminoacetaldehyde) conjugated with sphingomyelin and ceramide. Extraction and quantification of the sphingomyelin and ceramide were performed by extracting lipids from known method samples and resuspending the dried lipid extract in 25 μl of 0.2% Igepal CA-630 (Sigma-Aldrich). Each lipid level was quantified using the UPLC system. Using an experimental animal model APP/PS1 mouse for Alzheimer's disease patients, ASM concentration levels in plasma and brain tissues were measured after administration of AMI, which is the most widely used as an ASM inhibitor, and the novel ASM inhibitory compound of the Chemical Formula 2.

APP/PS1 mice [2] = test: Fear conditioning test in APP/PS1 mice; format: in vivo, mouse; conditions: 100 mg/kg/day via drinking water
Experimental: (§1) To confirm the therapeutic effect of the novel ASM inhibitory compounds, the novel ASM inhibitory compound or AMI were fed via drinking water at a dose of 100 mg/kg/day to mice at 5.5 months of age. Three months after the feeding, behavioral analysis on the mice was performed, followed by sampling of mouse brain tissues (FIG. 3).
(§2) Morris water maze (MWM) and fear conditioning experiments were conducted to identify potential effects on learning and memory. For MWM, the mice were learned the task four times a day for 10 days, followed by the removal of the platform at the 11th day and subsequently a probe trial. On the first day of the fear conditioning, the mice were placed in the conditioning chamber and subjected to sound stimulation (10 kHz, 70 dB) and electrical stimulation (0.3 mA, 1s). On the second day, their memory was checked without stimulation in the same conditioning chamber as on the first day. On the third day, memory tests were conducted for fear when only sound stimulation was given in another conditioning chamber. Open field tests and dark & light tests were conducted to assess activity and anxiety. In the open field test, the mice were placed in a square box for 10 minutes to measure their overall activity and time spent wandering the wall and center. […]

APP/PS1 mice [3] = test: Astrocytes (GFAP immunofluorescence) in cerebral cortex of APP/PS1 mice; format: in vivo, mouse; conditions: 100 mg/kg/day via drinking water, versus APP/PS1 mice
Experimental: as §1
After fixing the cerebrum and hippocampus of the test mice, 0.5% thioflavin S (Sigma-Aldrich), anti-20G10 antibodies (Mouse, 1:1000) against Aβ, 42 and anti-G30 antibodies (rabbit, 1:1000) against Aβ, 40, anti-GFAP antibodies (rabbit, 1:500, DAKO) were cultured together. The above sites were analyzed using a laser scanning confocal microscope equipped with Fluoview SV1000 imaging software (Olympus FV1000, Japan) or an Olympus BX51 microscope. Percentage of area of stained area to total tissue area was quantified and analyzed using Metamorph software (Molecular Devices).
In order to determine the effect of the novel ASM inhibitory compounds according to the present invention on the change of nerve inflammation in the APP/PS1 mice, the present inventors observed a change in astrocytes of their brains.

APP/PS1 mice [4] = test: Western blotting of autophagy-related proteins (LC3, Beclin-1, cathepsin D, p62) in brain tissue of APP/PS1 mice; format: in vivo, mouse
Experimental: as §1
Expression of the following genes was analyzed using Western blotting. First, antibodies against LC3, Becklin-1, p62 (All of them were purchased from Cell Signaling Technologies), Cathepsin D (R&D systems) and β-actin (Santa Cruz) were used, while densitometric quantification was performed using ImageJ Software (US National Institutes of Health).
In order to verify the mechanism of the ASM inhibitory compound of the Chemical Formula 2 in the autophagy-related pathways upon its administration, the conversion of LC3-I into LC3-II, and the expression levels of Beclin-1, cathepsin D and p62 in the brain tissue samples of the WT mice, APP/PS1 mice, and APP/PS1 mice treated with the ASM inhibitory compound of the Chemical Formula 2 which were 9.5 months old, respectively, were confirmed by Western blotting experiments.

APP/PS1 mice [5] = test: Open field test and dark & light test (activity and anxiety) in APP/PS1 mice; format: in vivo, mouse; conditions: 100 mg/kg/day via drinking water, versus APP/PS1 mice
Experimental: as §1, §2

[6] = 9.5 months old APP/PS1 mice, treated versus untreated

SMILES | ASM concentration level in brain tissues [1] | ASM concentration level in plasma [1] | memory in the fear conditioning test (contextual and tone tasks) (APP/PS1 mice [2]) | activity of astrocytes (GFAP) (APP/PS1 mice [3]) | conversion of LC3-I to LC3-II (APP/PS1 mice [4]; [6]) | expression level of cathepsin D (APP/PS1 mice [4]; [6]) | expression level of p62 (APP/PS1 mice [4]; [6]) | expression of Beclin-1 (APP/PS1 mice [4]; 9.5 months old, WT, APP/PS1 and treated APP/PS1 mice compared) | activity and anxiety (APP/PS1 mice [5]) | ASM inhibition in plasma and brain tissues compared with AMI ([1]; APP/PS1 mice)
CN(C)CCC=C1c2ccccc2CCc2ccccc21 [AMI, amitriptyline, reference compound] | remarkably low | remarkably low | – | – | – | – | – | – | – | –
CCCCCCCCCCCCn1cc(C(N)(CO)CO)nn1 [Chemical Formula 2, 2-amino-2-(1-dodecyl-1H-1,2,3-triazol-4-yl)propane-1,3-diol] | remarkably low | remarkably low | effect of improving the memory | significantly decreased | decreased | decreased | decreased | little difference | significantly improved | more significantly effective in inhibiting ASM activity than AMI
